Reference: patent publication US20080119412A1, “Polypeptides for Modulating Binding of Trp Channel Proteins and Trp- Associated Proteins” (NoNO Inc., priority 2003, published 2008)
Residues, ends and D or L forms follow the SMILES beside them. No end group written: not given here. *: point of attachment. Biotin = O=C1N[C@H]2[C@H](CS[C@H]2CCCCC(=O)*)N1

Tests used:
[1] = molecular target: T1, ZO-1 d2 (Homo sapiens, UniProt Q07157, DEL264-264); assay: G3 assay titration, GST-PDZ fusion / biotinylated peptide; type: binding
T1 construct: made in house; host or cells: E. coli (DH5alpha, BL21 or JM109)
T1 sequence (Q07157 with tags, fused parts or gaps DEL264-264): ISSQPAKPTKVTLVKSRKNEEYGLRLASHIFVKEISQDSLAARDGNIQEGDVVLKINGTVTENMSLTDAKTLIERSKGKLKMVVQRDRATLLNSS
Method: (§1) The G3 assay is identical to the G0 assay with the following exceptions. The peptides are typically present at 0.1 μM rather than 20 μM. The peptides are also pre-incubated with the HRP-streptavidin prior to adding to the assay plate. In the G0 assay, free peptide is incubated with the PDZ proteins prior to the addition of the HRP-streptavidin. Thus, for the G0 assay one can lose signal if the bound peptide dissociates from the PDZ protein prior to the addition of the HRP-streptavidin. In the G3 modified assay the HRP-streptavidin/peptide complex is added to the plate in one step, thus increasing the likelihood that all the bound peptide will be bound to HRP-streptavidin. The G3 modified assay increases the chance of observing weak interactions.
(§2) This example describes assays to identify binding between TRPM7 and PDZ domains. GST-PDZ fusions are produced that each contain an entire PDZ domain (or multiple PDZ domains), the collection encompassing approximately 90% of all PDZ domains identified in the human genome. (See Table 5 and Section V (PDZ Proteins and PL Protein Interactions Disclosure). Biotinylated peptide corresponding to 11 residues of Tat coupled to the C-terminal 9 amino acids of TRPM7 ([…]; SEQ ID NO:258) is synthesized and purified by HPLC.
(§3) • Nunc MaxiSorp 96 well Immuno-plate, Nunc • PBS pH 7.4 (phosphate buffered saline, 8 g NaCl, 0.29 g KCl, 1.44 g Na2HPO4, 0.24 g KH2PO4, add H2O to 1 liter and pH 7.4; 0.2 μm filter) • Assay Buffer: 2% BSA in PBS (20 g of bovine serum albumin per liter PBS, fraction V, ICN Biomedicals, cat#IC15142983 • Goat anti-GST polyclonal Ab, stock 5 mg/ml, stored at 4° C., Amersham Pharmacia cat#27-4577-01 • Dilute 1:1000 in PBS, final concentration 5 μg/ml. • HRP-Streptavidin, 2.5 mg/2 ml stock stored at 4° C., Zymed cat#43-4323, dilute 1:2000 into Assay buffer, final concentration of […] • Wash Buffer, PBS • Biotinylated peptides (HPLC purified, stock solution stored in −20° C. freezer) • GST-PRISM proteins (stock stored at −80° C., after 1st thaw store in −10° C. freezer) • TMB (3,3′,5,5′, teramethylbensidine), tablets, Sigma cat.#T5525 • Per plate, dissolve 1 tablet in 1 ml DMSO, add 9 ml Citrate/Phosphate buffer pH 5.4 and 2 μL H2O2 • 0.1 M H2SO4, Sigma cat.#S1526 • 12-w multichannel pipettor & tips • 50 ml reagent reservoirs, Costar#4870 • 50, 15 ml polypropylene conical tubes • Costar Transtar 96 Costar #7605 • Transtar 96 Cartridge Costar #7610 • Molecular Devices microplate reader (450 & 650 nm filters) with SoftMax Pro software *When using reagents stored at or 4° C. or −20° C., remove & keep on ice
(§4) • 1. Coat plate with 100 μl of 5 μg/ml anti-GST, overnight at 4° C. • 2. Dump contents of plate & out tap dry on paper towels • 3. Block with 200 μl Assay Buffer for 2 hrs at room temperature • 4. Prepare proteins at 5 μg/ml in Assay Buffer • 5. Wash 3× with cold PBS (4° C.), avoiding letting the plates dry out • 6. Add proteins at 50 μl per well, incubate 1 to 2 hrs at 4° C. • 7. Prepare peptides to desired concentration in Assay Buffer • 8. Wash 3× with cold PBS (4° C.), avoiding letting the plates dry out • 9. Add HRP-Streptavidin/peptide complex [prepared by incubating for 20 minutes at room temperature HRP-Streptavidin (1:2000) with the desired biotin-peptide concentration for 20 minutes at room temperature] at 50 μl per well on ice • 10. Place at room temperature for exactly 30 minutes • 11. Promptly wash 5× with PBS at room temperature • 12. Add 100 μl/well TMB substrate (write time on plate) • 13. Incubate in dark at room temperature for a maximum of 30 minutes • 14. Read plate at 25 minutes (650 nm), optional • 15. Stop reaction with 100 μl of 0.18 M H2SO4, 30 minutes after adding TMB • Take last reading at 450 nm soon after stopping reaction
(§5) The G3 assay was performed using 0.1 μM peptide representing 11 amino acids of Tat fused to the final 9 amino acids of TRPM7 ([…]; SEQ ID NO:258). […]

[2] = molecular target: T2, INADL d3 (Homo sapiens, UniProt Q8NI35); assay: as above; type: binding
T2 construct: made in house; host or cells: E. coli (DH5alpha, BL21 or JM109)
T2 sequence (Q8NI35 with tags, fused parts or gaps): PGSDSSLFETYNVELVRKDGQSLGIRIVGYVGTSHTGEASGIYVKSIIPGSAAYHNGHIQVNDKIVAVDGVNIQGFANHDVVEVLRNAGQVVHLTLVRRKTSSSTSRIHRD
Method: as §1, §2, §3, §4, §5

Compound	EC50 [1]	EC50 [2]	ODmax (450 nm) ([2]; Table 10, titration of peptides with INADL d3)
CC[C@H](C)[C@H](NC(=O)[C@@H](NC(=O)[C@H](CCCNC(=N)N)NC(=O)[C@H](CC(=O)O)NC(=O)[C@H](CO)NC(=O)[C@H](CCCNC(=N)N)NC(=O)[C@H](C)NC(=O)[C@H](CCCNC(=N)N)NC(=O)[C@H](CCCNC(=N)N)NC(=O)[C@H](CCCNC(=N)N)NC(=O)[C@H](CCC(N)=O)NC(=O)[C@H](CCCNC(=N)N)NC(=O)[C@H](CCCNC(=N)N)NC(=O)[C@H](CCCCN)NC(=O)[C@H](CCCCN)NC(=O)[C@H](CCCNC(=N)N)NC(=O)CNC(=O)[C@H](Cc1ccc(O)cc1)NC(=O)CCCC[C@@H]1SC[C@@H]2NC(=O)N[C@@H]21)[C@@H](C)O)C(=O)N[C@H](C(=O)N[C@@H](C)C(=O)O)[C@@H](C)CC [Peptide 1830] (Biotin-YGRKKRRQRRRARSDRTIIA-OH)	< 20 nM	< 2000 nM	
CC(C)[C@H](NC(=O)[C@H](CCC(=O)O)NC(=O)[C@@H](NC(=O)[C@H](CCCCN)NC(=O)[C@H](CCCNC(=N)N)NC(=O)[C@H](CC(=O)O)NC(=O)[C@@H](NC(=O)[C@H](CCCNC(=N)N)NC(=O)[C@H](C)NC(=O)[C@H](CCCNC(=N)N)NC(=O)[C@H](CCCNC(=N)N)NC(=O)[C@H](CCCNC(=N)N)NC(=O)[C@H](CCC(N)=O)NC(=O)[C@H](CCCNC(=N)N)NC(=O)[C@H](CCCNC(=N)N)NC(=O)[C@H](CCCCN)NC(=O)[C@H](CCCCN)NC(=O)[C@H](CCCNC(=N)N)NC(=O)CNC(=O)[C@H](Cc1ccc(O)cc1)NC(=O)CCCC[C@@H]1SC[C@@H]2NC(=O)N[C@@H]21)[C@@H](C)O)C(C)C)C(=O)O [Peptide 1837] (Biotin-YGRKKRRQRRRARTDRKVEV-OH)	< 20 nM		
CC[C@H](C)[C@H](NC(=O)[C@H](Cc1ccc(O)cc1)NC(=O)[C@H](CCCCN)NC(=O)[C@H](CCCNC(=N)N)NC(=O)[C@H](CC(=O)O)NC(=O)CNC(=O)[C@H](CCCNC(=N)N)NC(=O)[C@H](C)NC(=O)[C@H](CCCNC(=N)N)NC(=O)[C@H](CCCNC(=N)N)NC(=O)[C@H](CCCNC(=N)N)NC(=O)[C@H](CCC(N)=O)NC(=O)[C@H](CCCNC(=N)N)NC(=O)[C@H](CCCNC(=N)N)NC(=O)[C@H](CCCCN)NC(=O)[C@H](CCCCN)NC(=O)[C@H](CCCNC(=N)N)NC(=O)CNC(=O)[C@H](Cc1ccc(O)cc1)NC(=O)CCCC[C@@H]1SC[C@@H]2NC(=O)N[C@@H]21)C(=O)N[C@H](C(=O)O)C(C)C [Peptide 1838] (Biotin-YGRKKRRQRRRARGDRKYIV-OH)	< 100 nM	< 100 nM	
CC(C)[C@H](NC(=O)[C@@H]1CCCN1C(=O)[C@@H](NC(=O)[C@H](CCCCN)NC(=O)[C@H](CCCNC(=N)N)NC(=O)[C@H](CC(=O)O)NC(=O)CNC(=O)[C@H](CCCNC(=N)N)NC(=O)[C@H](C)NC(=O)[C@H](CCCNC(=N)N)NC(=O)[C@H](CCCNC(=N)N)NC(=O)[C@H](CCCNC(=N)N)NC(=O)[C@H](CCC(N)=O)NC(=O)[C@H](CCCNC(=N)N)NC(=O)[C@H](CCCNC(=N)N)NC(=O)[C@H](CCCCN)NC(=O)[C@H](CCCCN)NC(=O)[C@H](CCCNC(=N)N)NC(=O)CNC(=O)[C@H](Cc1ccc(O)cc1)NC(=O)CCCC[C@@H]1SC[C@@H]2NC(=O)N[C@@H]21)C(C)C)C(=O)O [Peptide 1841] (Biotin-YGRKKRRQRRRARGDRKVPV-OH)	< 20 nM		
CC(C)C[C@H](NC(=O)[C@H](CCCNC(=N)N)NC(=O)[C@@H](NC(=O)CNC(=O)[C@H](CCCNC(=N)N)NC(=O)[C@H](C)NC(=O)[C@H](CCCNC(=N)N)NC(=O)[C@H](CCCNC(=N)N)NC(=O)[C@H](CCCNC(=N)N)NC(=O)[C@H](CCC(N)=O)NC(=O)[C@H](CCCNC(=N)N)NC(=O)[C@H](CCCNC(=N)N)NC(=O)[C@H](CCCCN)NC(=O)[C@H](CCCCN)NC(=O)[C@H](CCCNC(=N)N)NC(=O)CNC(=O)[C@H](Cc1ccc(O)cc1)NC(=O)CCCC[C@@H]1SC[C@@H]2NC(=O)N[C@@H]21)[C@@H](C)O)C(=O)N[C@H](C(=O)N[C@@H](Cc1c[nH]c2ccccc12)C(=O)N[C@H](C(=O)O)C(C)C)C(C)C [Peptide 1844] (Biotin-YGRKKRRQRRRARGTRLVWV-OH)	< 20 nM	< 20 nM	
CC[C@H](C)[C@H](NC(=O)[C@H](CCCNC(=N)N)NC(=O)[C@H](Cc1ccc(O)cc1)NC(=O)[C@H](CCCNC(=N)N)NC(=O)[C@H](CC(=O)O)NC(=O)CNC(=O)[C@H](CCCNC(=N)N)NC(=O)[C@H](C)NC(=O)[C@H](CCCNC(=N)N)NC(=O)[C@H](CCCNC(=N)N)NC(=O)[C@H](CCCNC(=N)N)NC(=O)[C@H](CCC(N)=O)NC(=O)[C@H](CCCNC(=N)N)NC(=O)[C@H](CCCNC(=N)N)NC(=O)[C@H](CCCCN)NC(=O)[C@H](CCCCN)NC(=O)[C@H](CCCNC(=N)N)NC(=O)CNC(=O)[C@H](Cc1ccc(O)cc1)NC(=O)CCCC[C@@H]1SC[C@@H]2NC(=O)N[C@@H]21)C(=O)N[C@H](C(=O)O)C(C)C [Peptide 1845] (Biotin-YGRKKRRQRRRARGDRYRIV-OH)	< 100 nM	< 100 nM	
CC[C@H](C)[C@H](NC(=O)[C@@H](NC(=O)[C@H](CCCNC(=N)N)NC(=O)[C@H](CC(=O)O)NC(=O)CNC(=O)[C@H](CCCNC(=N)N)NC(=O)[C@H](C)NC(=O)[C@H](CCCNC(=N)N)NC(=O)[C@H](CCCNC(=N)N)NC(=O)[C@H](CCCNC(=N)N)NC(=O)[C@H](CCC(N)=O)NC(=O)[C@H](CCCNC(=N)N)NC(=O)[C@H](CCCNC(=N)N)NC(=O)[C@H](CCCCN)NC(=O)[C@H](CCCCN)NC(=O)[C@H](CCCNC(=N)N)NC(=O)CNC(=O)[C@H](Cc1ccc(O)cc1)NC(=O)CCCC[C@@H]1SC[C@@H]2NC(=O)N[C@@H]21)[C@@H](C)O)C(=O)N[C@H](C(=O)N[C@@H](Cc1ccc(O)cc1)C(=O)O)[C@@H](C)CC [Peptide 1848] (Biotin-YGRKKRRQRRRARGDRTIIY-OH)	< 20 nM	< 2000 nM	
CC(C)[C@H](NC(=O)[C@H](Cc1c[nH]c2ccccc12)NC(=O)[C@@H](NC(=O)[C@H](CCC(=O)O)NC(=O)[C@H](CCCNC(=N)N)NC(=O)[C@H](CCCNC(=N)N)NC(=O)CNC(=O)[C@H](CCCNC(=N)N)NC(=O)[C@H](C)NC(=O)[C@H](CCCNC(=N)N)NC(=O)[C@H](CCCNC(=N)N)NC(=O)[C@H](CCCNC(=N)N)NC(=O)[C@H](CCC(N)=O)NC(=O)[C@H](CCCNC(=N)N)NC(=O)[C@H](CCCNC(=N)N)NC(=O)[C@H](CCCCN)NC(=O)[C@H](CCCCN)NC(=O)[C@H](CCCNC(=N)N)NC(=O)CNC(=O)[C@H](Cc1ccc(O)cc1)NC(=O)CCCC[C@@H]1SC[C@@H]2NC(=O)N[C@@H]21)[C@@H](C)O)C(=O)O [Peptide 1854] (Biotin-YGRKKRRQRRRARGRRETWV-OH)		< 20 nM	
Biotin-YGRKKRRQRRRSRTDRLEYV [Peptide 1846]			1.50
